Consider eleven molecules from paper PMC9851200, “Multiparameter phenotypic screening for endogenous TFEB and TFE3 translocation identifies novel chemical series modulating lysosome function” (Autophagy, 2022).

Common to all, as to settings: PKIS2 primary screening
Data set [1] relates to SH-SY5Y cells.
Excerpt: The PKIS2 Library was supplied by The Structural Genomics Consortium at the University of North Carolina at Chapel Hill.
The subject of another data set is endogenous TFEB. As to the kind of experiment: TFEB nuclear translocation, immunocytochemistry high-content imaging. The data set is classed as cell-based.
For a further data set, the system named is endogenous TFE3. The data set can be described thus: TFE3 nuclear translocation, immunocytochemistry high-content imaging. The data set is classed as cell-based.
In data set [2] the test system is SH-SY5Y cells. The data set can be described thus: Nuclear count from microscopy images (cellular growth and toxicity). Note: reference of the scale not given here.
The test system of data set [3] is SH-SY5Y cells. As to the kind of experiment: AK (adenylate kinase) release ToxiLight cytotoxicity assay. Note: reference of the scale not given here.

Where two headings read alike, the source gives them in different places.
Throughout, for DQ Intensity: reference of the scale not given here.
Throughout, for DQ Spot: reference of the scale not given here.

Turning to `COc1ccc(Nc2nccc(NCCNC(=O)Nc3cc(C)ccc3C)n2)cc1` [GSK1379899], in the data set with SH-SY5Y cells [1] (DQ Red BSA intensity), the “DQ Intensity” value was found to be 123.56. Moreover, the “DQ Spot” value in the data set on SH-SY5Y cells [1] (DQ Red BSA spot count) amounted to 108.96. The TFEB % in the data set with endogenous TFEB is listed as 7.12%. Also, the TFE3 % with endogenous TFE3 is 15.31%. Moreover, in the data set on SH-SY5Y cells [2], the “Nuclear Count” value worked out at 88.82. Also, in the data set on SH-SY5Y cells [3], the AK was determined as 79.47.

Take `Cc1cccc(Nc2nc(N[C@H]3CCCC[C@H]3N)ncc2C(N)=O)c1.Cl` [UNC10225280A]: in the data set with SH-SY5Y cells [1], the “DQ Intensity” value is reported as 129.29 and the “DQ Spot” value is on record as 106.20. The molecule further had a TFEB % in the data set with endogenous TFEB of 7.12%. In the data set with endogenous TFE3, this molecule came in with a TFE3 % of 21.69%. Further, in the data set on SH-SY5Y cells [2], the “Nuclear Count” value was 90.29. The molecule further showed an AK in the data set with SH-SY5Y cells [3] of 87.17.

As for `CC(C)c1nc(-c2ccc(F)c(NS(=O)(=O)c3c(F)cccc3F)c2)c(-c2ccnc(Nc3ccc(N4CCOCC4)nc3)n2)s1` [UNC10225089A], in the data set on SH-SY5Y cells [1], the “DQ Intensity” value is 67.64 and the “DQ Spot” value turned out to be 97.60. This molecule also gave a TFEB % with endogenous TFEB of 9.24%. Also, the TFE3 % with endogenous TFE3 was determined as 14.74%. Moreover, the “Nuclear Count” value in the data set on SH-SY5Y cells [2] is 76.92. In addition, in the data set on SH-SY5Y cells [3], the AK is 110.72.

On to `Cc1ccccc1COc1cc(-n2cnc3cc(Cl)ccc32)sc1C(N)=O` [UNC10225491A], for which, in the data set with SH-SY5Y cells [1], the “DQ Intensity” value was determined as 119.27 and the “DQ Spot” value is listed as 99.65. The molecule further registered a TFEB % in the data set on endogenous TFEB of 9.14%. Further, the TFE3 % in the data set with endogenous TFE3 worked out at 6.85%. The “Nuclear Count” value with SH-SY5Y cells [2] is given as 71.39. This molecule returned an AK with SH-SY5Y cells [3] of 190.42.

Turning to `O=C(Nc1n[nH]c2cc(-c3ccco3)ccc12)C1CC1` [SB-737447], the “DQ Intensity” value in the data set with SH-SY5Y cells [1] (DQ Red BSA intensity) came to 79.02. Also, the “DQ Spot” value in the data set on SH-SY5Y cells [1] (DQ Red BSA spot count) was determined as 97.06. In addition, the TFEB % with endogenous TFEB turned out to be 10.40%. In the data set on endogenous TFE3, this molecule registered a TFE3 % of 9.47%. In the data set on SH-SY5Y cells [2], the “Nuclear Count” value was determined as 114.46. Further, the AK in the data set with SH-SY5Y cells [3] is on record as 119.40.

For the molecule `O=C(NCCCN1CCOCC1)c1cccc(Nc2nccc(Nc3ccc(Oc4ccccc4)cc3)n2)c1` [GW663929], the “DQ Intensity” value in the data set with SH-SY5Y cells [1] (DQ Red BSA intensity) is 88.80. Also, the “DQ Spot” value with SH-SY5Y cells [1] (DQ Red BSA spot count) was 80.91. Further, the TFEB % in the data set with endogenous TFEB was determined as 4.62%. In the data set with endogenous TFE3, this molecule returned a TFE3 % of 16.30%. The “Nuclear Count” value with SH-SY5Y cells [2] was 103.04. In the data set on SH-SY5Y cells [3], the AK is on record as 108.46.

On to `COc1ccc(Nc2nccc(-c3ccc(NC(=O)c4cc5cc(F)ccc5[nH]4)cc3)n2)cc1` [GSK1229496], for which the “DQ Intensity” value in the data set on SH-SY5Y cells [1] (DQ Red BSA intensity) is 79.73. The “DQ Spot” value with SH-SY5Y cells [1] (DQ Red BSA spot count) turned out to be 89.01. This molecule gave a TFEB % in the data set with endogenous TFEB of 5.47%. The molecule also returned a TFE3 % in the data set on endogenous TFE3 of 10.21%. Besides, the “Nuclear Count” value in the data set on SH-SY5Y cells [2] is 129.71. In the data set on SH-SY5Y cells [3], this molecule came in with an AK of 76.92.

With `O=C(NCC1CC1)c1ccc(-c2cc(C(=O)NC3CC3)ccc2F)cc1` [UNC10224986A], in the data set with SH-SY5Y cells [1], the “DQ Intensity” value was found to be 92.71 and the “DQ Spot” value was found to be 109.74. The same molecule registered a TFEB % in the data set with endogenous TFEB of 5.16%. In the data set with endogenous TFE3, this molecule showed a TFE3 % of 10.56%. In the data set on SH-SY5Y cells [2], the “Nuclear Count” value was determined as 97.72. In the data set on SH-SY5Y cells [3], the AK was found to be 72.27.

For `CSc1nn2c(=O)cc(N3CCOCC3)nc2n1Cc1cccc(Cl)c1Cl` [UNC10225435A], in the data set with SH-SY5Y cells [1], the “DQ Intensity” value is 59.30 and the “DQ Spot” value worked out at 119.93. The molecule further displayed a TFEB % in the data set on endogenous TFEB of 4.09%. The TFE3 % in the data set with endogenous TFE3 was found to be 19.82%. Besides, in the data set on SH-SY5Y cells [2], the “Nuclear Count” value is 99.93. The molecule further gave an AK in the data set on SH-SY5Y cells [3] of 85.33.

Take `Cc1ccc2c(-c3ccncc3)c(-c3ccc(F)cc3)nn2c1.Cl` [UNC10225321A]: the “DQ Intensity” value with SH-SY5Y cells [1] (DQ Red BSA intensity) is on record as 88.59. Also, in the data set on SH-SY5Y cells [1] (DQ Red BSA spot count), the “DQ Spot” value came to 94.42. Further, the TFEB % in the data set on endogenous TFEB is 3.59%. Also, the TFE3 % in the data set with endogenous TFE3 was determined as 14.14%. For the same molecule, the “Nuclear Count” value with SH-SY5Y cells [2] was 114.41. Besides, in the data set with SH-SY5Y cells [3], the AK was determined as 67.03.

Consider `Nc1nc(-c2ccccn2)c(-c2ccnc3ccccc23)s1` [UNC10225201A], for which the “DQ Intensity” value in the data set on SH-SY5Y cells [1] (DQ Red BSA intensity) was 97.54. Besides, the “DQ Spot” value with SH-SY5Y cells [1] (DQ Red BSA spot count) was found to be 92.32. The TFEB % in the data set with endogenous TFEB is recorded as 4.25%. In the data set on endogenous TFE3, this molecule gave a TFE3 % of 10.28%. Moreover, the “Nuclear Count” value in the data set with SH-SY5Y cells [2] was determined as 144.30. The molecule also returned an AK in the data set with SH-SY5Y cells [3] of 81.66.
